Measurements reported in ChEMBL document CHEMBL4371055, “Bioactive polyoxygenated cembranoids from a novel Hainan chemotype of the soft coral Sinularia flexibilis” (Bioorg Med Chem Lett, 2019).
pIC50: −log10 of the molar value. Values belong to the molecule of their own block, whether it stands above or below them.

Columns and labels:
[1] = Cytotoxicity against mouse RAW264.7 cells assessed as reduction in cell viability after 24 hrs by CCK8 assay; type: cell-based
[2] = tested on: HT-29; test: Cytotoxicity against human HT-29 cells after 48 hrs by sulforhodamine B assay; type: functional, cell-based; conditions: HT-29, 48 h
[3] = tested on: SNU-398; test: Cytotoxicity against human SNU398 cells after 48 hrs by sulforhodamine B assay; type: functional, cell-based; conditions: SNU-398, 48 h
[4] = tested on: CAPAN-1; test: Cytotoxicity against human Capan1 cells after 48 hrs by sulforhodamine B assay; type: functional, cell-based; conditions: CAPAN-1, 48 h
[5] = tested on: RAW264.7; test: Antiinflammatory activity in mouse RAW264.7 cells assessed as inhibition of LPS-induced TNFalpha production pretreated for 30 mins followed by LPS stimulation for 24 hrs by ELISA; type: functional, cell-based
[6] = Selectivity index, ratio of CC50 for mouse RAW264.7 cells to IC50 for inhibition of LPS-induced TNFalpha production in mouse RAW264.7 cells; type: toxicity, cell-based; conditions: read-out: Ratio CC50/IC50
[7] = tested on: A549; test: Cytotoxicity against human A549 cells after 48 hrs by sulforhodamine B assay; type: functional, cell-based; conditions: A549, 48 h

Structure (SMILES): C=C(C(=O)OC)[C@H]1CC[C@@]2(C)O[C@@H]2CC/C(C)=C/CC[C@@]2(C)O[C@H]2C1
CC50 at 24 h [1]: > 50 µM
pIC50 [2]: < 4.30
pIC50 [3]: < 4.30
pIC50 [4]: < 4.30
pIC50 [5]: 5.38
selectivity ratio [6]: > 11.9
pIC50 [7]: < 4.30

Structure (SMILES): C=C(C(=O)OCCCC)[C@@H]1CC[C@@](C)(O)[C@H](O)CC/C(C)=C/CC[C@]2(C)O[C@H]2C1
CC50 at 24 h [1]: > 50 µM
pIC50 [2]: < 4.30
pIC50 [3]: < 4.30
pIC50 [4]: < 4.30
pIC50 [5]: < 4.30
pIC50 [7]: < 4.30

Structure (SMILES): C=C(C(=O)OCCCC)[C@@H]1CC[C@@](C)(O)[C@@H]2CC[C@](C)(O2)[C@@H](OC(C)=O)CC[C@]2(C)O[C@H]2C1
CC50 at 24 h [1]: > 50 µM
pIC50 [2]: < 4.30
pIC50 [3]: < 4.30
pIC50 [4]: < 4.30
pIC50 [5]: 4.68
selectivity ratio [6]: > 2.4
pIC50 [7]: < 4.30

Structure (SMILES): C=C(C)[C@@H]1CC[C@]2(C)O[C@H]2CC/C(C)=C/CC[C@]2(C)O[C@H]2C1
CC50 at 24 h [1]: > 50 µM
pIC50 [2]: < 4.30
pIC50 [3]: < 4.30
pIC50 [4]: < 4.30
pIC50 [5]: < 4.30
pIC50 [7]: < 4.30

Structure (SMILES): C[C@@H]1C[C@H]2[C@@H]3CCC4=CC(=O)C=C[C@]4(C)[C@@]3(F)[C@@H](O)C[C@]2(C)[C@@]1(O)C(=O)CO [DEXAMETHASONE]
CC50 at 24 h [1]: > 50 µM
pIC50 [5]: 5.06
selectivity ratio [6]: > 5.7

Structure (SMILES): CC(=O)O[C@H]1C(=O)[C@@]2(C)[C@H]([C@H](OC(=O)c3ccccc3)[C@]3(O)C[C@H](OC(=O)[C@H](O)[C@@H](NC(=O)c4ccccc4)c4ccccc4)C(C)=C1C3(C)C)[C@]1(OC(C)=O)CO[C@@H]1C[C@@H]2O [PACLITAXEL]
pIC50 [3]: 9.22
pIC50 [4]: 8.48

Second part, led by results:

pIC50 [5]: 4.41
Structure (SMILES): C=C(C(=O)OCCCC)[C@H]1CC[C@](C)(O)C(=O)CC/C(C)=C/CC[C@]2(C)O[C@@H]2C1
CC50 at 24 h [1]: > 50 µM
pIC50 [2]: < 4.30
pIC50 [3]: < 4.30
pIC50 [4]: < 4.30
selectivity ratio [6]: > 1.3
pIC50 [7]: < 4.30

pIC50 [5]: 5.57
Structure (SMILES): C=C1C(=O)O[C@]2(C)CC[C@@H]1C[C@@H]1O[C@@]1(C)CC/C=C(\C)CC[C@H]2OC(C)=O
CC50 at 24 h [1]: > 50 µM
pIC50 [2]: 4.49
pIC50 [3]: 4.60
pIC50 [4]: 4.54
selectivity ratio [6]: > 18.5
pIC50 [7]: < 4.30

pIC50 [5]: 4.88
Structure (SMILES): C=C(C(=O)OC)[C@H]1CC[C@](C)(O)C(=O)CC/C(C)=C/CC[C@]2(C)O[C@@H]2C1
CC50 at 24 h [1]: > 50 µM
pIC50 [2]: < 4.30
pIC50 [3]: < 4.30
pIC50 [4]: < 4.30
selectivity ratio [6]: > 3.8
pIC50 [7]: < 4.30

pIC50 [5]: < 4.30
Structure (SMILES): C=C1C(=O)O[C@]2(C)CC[C@@H]1C[C@@H]1O[C@@]1(C)CC/C=C(\C)CCC2=O
CC50 at 24 h [1]: > 50 µM
pIC50 [2]: 4.64
pIC50 [3]: 5.05
pIC50 [4]: 5.03
pIC50 [7]: 4.56

pIC50 [5]: 5.33
Structure (SMILES): C=C1C(=O)O[C@]2(C)CC[C@@H]1C[C@@H]1O[C@@]1(C)CC/C=C(\C)CC[C@@H]2O [SINULARIOLIDE]
CC50 at 24 h [1]: > 50 µM
pIC50 [2]: 4.47
pIC50 [3]: 4.61
pIC50 [4]: 4.58
selectivity ratio [6]: > 10.6
pIC50 [7]: < 4.30
